# According to patent US10435399B2, “HDAC6 inhibitory heterocyclic compound” (TAKEDA PHARMACEUTICAL COMPANY LIMITED, priority 2017, dated 2019):
# Molecular target: T1, HDAC6 enzyme (Homo sapiens, UniProt Q9UBN7)
# T1 construct: transducing full length HDAC6 gene into Sf-9 insect cells; GST; purchased SignalChem; host or cells: Sf-9 insect cells
# T1 sequence (Q9UBN7 1-1215): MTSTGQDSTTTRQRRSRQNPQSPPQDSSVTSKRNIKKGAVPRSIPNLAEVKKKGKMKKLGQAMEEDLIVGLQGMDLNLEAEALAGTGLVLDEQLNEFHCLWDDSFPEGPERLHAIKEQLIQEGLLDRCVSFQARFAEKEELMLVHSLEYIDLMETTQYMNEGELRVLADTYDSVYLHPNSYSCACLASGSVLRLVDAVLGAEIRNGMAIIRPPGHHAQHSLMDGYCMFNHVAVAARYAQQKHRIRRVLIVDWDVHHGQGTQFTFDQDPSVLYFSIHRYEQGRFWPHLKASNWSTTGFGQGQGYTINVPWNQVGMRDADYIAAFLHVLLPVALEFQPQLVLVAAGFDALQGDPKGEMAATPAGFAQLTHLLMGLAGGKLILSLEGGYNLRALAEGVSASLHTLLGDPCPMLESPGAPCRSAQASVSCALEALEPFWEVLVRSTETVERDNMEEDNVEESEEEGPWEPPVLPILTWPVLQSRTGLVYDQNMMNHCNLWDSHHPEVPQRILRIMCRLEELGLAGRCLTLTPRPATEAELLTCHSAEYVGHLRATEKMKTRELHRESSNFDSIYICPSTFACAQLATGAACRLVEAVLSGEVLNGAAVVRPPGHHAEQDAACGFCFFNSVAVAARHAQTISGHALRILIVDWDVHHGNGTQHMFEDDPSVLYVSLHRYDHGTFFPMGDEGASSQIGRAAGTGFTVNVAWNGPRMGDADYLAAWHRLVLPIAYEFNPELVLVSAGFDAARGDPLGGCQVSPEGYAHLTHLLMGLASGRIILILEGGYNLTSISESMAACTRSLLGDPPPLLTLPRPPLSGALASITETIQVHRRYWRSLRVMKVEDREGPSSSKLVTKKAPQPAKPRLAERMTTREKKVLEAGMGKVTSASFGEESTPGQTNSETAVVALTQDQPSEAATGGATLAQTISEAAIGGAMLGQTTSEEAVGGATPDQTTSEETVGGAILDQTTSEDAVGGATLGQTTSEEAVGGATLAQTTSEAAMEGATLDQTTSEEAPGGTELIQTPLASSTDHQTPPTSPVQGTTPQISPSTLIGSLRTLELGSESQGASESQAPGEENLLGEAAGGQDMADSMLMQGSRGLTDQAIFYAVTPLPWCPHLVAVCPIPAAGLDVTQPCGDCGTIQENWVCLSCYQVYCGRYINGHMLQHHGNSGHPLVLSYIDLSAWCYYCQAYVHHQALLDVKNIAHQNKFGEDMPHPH
# Assay: HDAC6 enzyme inhibitory activity (HDAC-Glo I/II Assay kit)
# Type: biochemical
# Conditions: 10 μM; wells without enzyme = 100% inhibition; read-out: HDAC6 inhibitory rate (%) (10 μM)
# Summary of the method: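 Inhibition is calculated as relative activity, taking luminescence in enzyme-free wells as complete inhibition. The enzyme, full-length and GST-purified after Sf-9 expression, was exposed to compound for 60 min at room temperature before a 20 min HDAC-Glo reaction.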
row,inhibition at 10 µM,Structure (SMILES)
1,100%,"O=C(N[C@@H]1CCCC[C@H]1N1Cc2ccc(-c3nnc(C(F)F)o3)cc2C1=O)[C@@H]1CCCO1 [Example 93, (2S)-N-((1R,2R)-2-(6-(5-(difluoromethyl)-1,3,4-oxadiazol-2-yl)-1-oxo-1,3-dihydro-2H-isoindol-2-yl)cyclohexyl)tetrahydrofuran-2-carboxamide]"
2,100%,O=C(N[C@@H]1CCCC[C@H]1N1Cc2ccc(-c3nnc(C(F)F)o3)cc2C1=O)[C@@H]1CCOC1 [Example 94]
3,96%,"O=C(N[C@@H]1CCCC[C@H]1N1Cc2ccc(-c3nnc(C(F)F)o3)cc2C1=O)C1CCOCC1 [Example 95, N-((1R,2R)-2-(6-(5-(difluoromethyl)-1,3,4-oxadiazol-2-yl)-1-oxo-1,3-dihydro-2H-isoindol-2-yl)cyclohexyl)tetrahydro-2H-pyran-4-carboxamide]"
4,98%,"Cn1cncc1C(=O)N[C@@H]1CCCC[C@H]1N1Cc2ccc(-c3nnc(C(F)F)o3)cc2C1=O [Example 96, N-((1R,2R)-2-(6-(5-(difluoromethyl)-1,3,4-oxadiazol-2-yl)-1-oxo-1,3-dihydro-2H-isoindol-2-yl)cyclohexyl)-1-methyl-1H-imidazole-5-carboxamide]"
5,100%,"Cn1cc(C(=O)N[C@@H]2CCCC[C@H]2N2Cc3ccc(-c4nnc(C(F)F)o4)cc3C2=O)cn1 [Example 97, N-((1R,2R)-2-(6-(5-(difluoromethyl)-1,3,4-oxadiazol-2-yl)-1-oxo-1,3-dihydro-2H-isoindol-2-yl)cyclohexyl)-1-methyl-1H-pyrazole-4-carboxamide]"
6,101%,"O=C(N[C@@H]1CCCC[C@H]1N1Cc2ccc(-c3nnc(C(F)F)o3)cc2C1=O)c1ccccc1 [Example 98, N-((1R,2R)-2-(6-(5-(difluoromethyl)-1,3,4-oxadiazol-2-yl)-1-oxo-1,3-dihydro-2H-isoindol-2-yl)cyclohexyl)benzamide]"
7,100%,"O=C(N[C@@H]1CCCC[C@H]1N1Cc2ccc(-c3nnc(C(F)F)o3)cc2C1=O)c1ccccc1Cl [Example 99, 2-chloro-N-((1R,2R)-2-(6-(5-(difluoromethyl)-1,3,4-oxadiazol-2-yl)-1-oxo-1,3-dihydro-2H-isoindol-2-yl)cyclohexyl)benzamide]"
8,100%,"O=C(N[C@@H]1CCCC[C@H]1N1Cc2ccc(-c3nnc(C(F)F)o3)cc2C1=O)c1cccc(Cl)c1 [Example 100, 3-chloro-N-((1R,2R)-2-(6-(5-(difluoromethyl)-1,3,4-oxadiazol-2-yl)-1-oxo-1,3-dihydro-2H-isoindol-2-yl)cyclohexyl)benzamide]"
9,99%,"O=C(N[C@@H]1CCCC[C@H]1N1Cc2ccc(-c3nnc(C(F)F)o3)cc2C1=O)c1ccc(Cl)cc1 [Example 101, 4-chloro-N-((1R,2R)-2-(6-(5-(difluoromethyl)-1,3,4-oxadiazol-2-yl)-1-oxo-1,3-dihydro-2H-isoindol-2-yl)cyclohexyl)benzamide]"
10,96%,"O=C(N[C@@H]1CCCC[C@H]1N1Cc2ccc(-c3nnc(C(F)F)o3)cc2C1=O)C1CCC(F)(F)CC1 [Example 102, N-((1R,2R)-2-(6-(5-(difluoromethyl)-1,3,4-oxadiazol-2-yl)-1-oxo-1,3-dihydro-2H-isoindol-2-yl)cyclohexyl)-4,4-difluorocyclohexanecarboxamide]"
11,98%,"C[C@](O)(C(=O)N[C@@H]1CCCC[C@H]1N1Cc2ccc(-c3nnc(C(F)F)o3)cc2C1=O)C(F)(F)F [Example 103, (2S)-N-((1R,2R)-2-(6-(5-(difluoromethyl)-1,3,4-oxadiazol-2-yl)-1-oxo-1,3-dihydro-2H-isoindol-2-yl)cyclohexyl)-3,3,3-trifluoro-2-hydroxy-2-methylpropanamide]"
12,97%,"C[C@@](O)(C(=O)N[C@@H]1CCCC[C@H]1N1Cc2ccc(-c3nnc(C(F)F)o3)cc2C1=O)C(F)(F)F [Example 104, (2R)-N-((1R,2R)-2-(6-(5-(difluoromethyl)-1,3,4-oxadiazol-2-yl)-1-oxo-1,3-dihydro-2H-isoindol-2-yl)cyclohexyl)-3,3,3-trifluoro-2-hydroxy-2-methylpropanamide]"
13,98%,"O=C(N[C@@H]1CCCC[C@H]1N1Cc2ccc(-c3nnc(C(F)F)o3)cc2C1=O)c1ccccn1 [Example 105, N-((1R,2R)-2-(6-(5-(difluoromethyl)-1,3,4-oxadiazol-2-yl)-1-oxo-1,3-dihydro-2H-isoindol-2-yl)cyclohexyl)pyridine-2-carboxamide]"
14,99%,"CC(C)(F)C(=O)N[C@@H]1CCCC[C@H]1N1Cc2ccc(-c3nnc(C(F)F)o3)cc2C1=O [Example 106, N-((1R,2R)-2-(6-(5-(difluoromethyl)-1,3,4-oxadiazol-2-yl)-1-oxo-1,3-dihydro-2H-isoindol-2-yl)cyclohexyl)-2-fluoro-2-methylpropanamide]"
15,102%,"CCCCCCC(=O)N[C@@H]1CCCC[C@H]1N1Cc2ccc(-c3nnc(C(F)F)o3)cc2C1=O [Example 107, N-((1R,2R)-2-(6-(5-(difluoromethyl)-1,3,4-oxadiazol-2-yl)-1-oxo-1,3-dihydro-2H-isoindol-2-yl)cyclohexyl)heptanamide]"
16,100%,"O=C1c2cc(-c3nnc(C(F)F)o3)ccc2CN1[C@@H]1CCCC[C@H]1NC(=O)C1(c2ccc(F)cc2)CC1 [Example 108, N-((1R,2R)-2-(6-(5-(difluoromethyl)-1,3,4-oxadiazol-2-yl)-1-oxo-1,3-dihydro-2H-isoindol-2-yl)cyclohexyl)-1-(4-fluorophenyl)cyclopropanecarboxamide]"
17,97%,"O=C1c2cc(-c3nnc(C(F)F)o3)ccc2CN1[C@@H]1CCCC[C@H]1NC(=O)C1(c2ccc(F)cc2)CCC1 [Example 109, N-((1R,2R)-2-(6-(5-(difluoromethyl)-1,3,4-oxadiazol-2-yl)-1-oxo-1,3-dihydro-2H-isoindol-2-yl)cyclohexyl)-1-(4-fluorophenyl)cyclobutanecarboxamide]"
18,98%,"O=C(CC1CCC1)N[C@@H]1CCCC[C@H]1N1Cc2ccc(-c3nnc(C(F)F)o3)cc2C1=O [Example 110, 2-cyclobutyl-N-((1R,2R)-2-(6-(5-(difluoromethyl)-1,3,4-oxadiazol-2-yl)-1-oxo-1,3-dihydro-2H-isoindol-2-yl)cyclohexyl)acetamide]"
19,95%,"O=C1c2cc(-c3nnc(C(F)F)o3)ccc2CN1c1ccccc1Br [Example 112, 2-(2-bromophenyl)-6-(5-(difluoromethyl)-1,3,4-oxadiazol-2-yl)isoindolin-1-one]"
20,102%,"O=C(N[C@@H]1CCCC[C@H]1N1Cc2ccc(-c3nnc(C(F)F)o3)cc2C1=O)[C@H]1CCCO1 [Example 113, (2R)-N-((1R,2R)-2-(6-(5-(difluoromethyl)-1,3,4-oxadiazol-2-yl)-1-oxo-1,3-dihydro-2H-isoindol-2-yl)cyclohexyl)tetrahydrofuran-2-carboxamide]"
21,100%,"O=C(N[C@@H]1CCCC[C@H]1N1Cc2ccc(-c3nnc(C(F)F)o3)cc2C1=O)[C@H]1CCOC1 [Example 114, (3S)-N-((1R,2R)-2-(6-(5-(difluoromethyl)-1,3,4-oxadiazol-2-yl)-1-oxo-1,3-dihydro-2H-isoindol-2-yl)cyclohexyl)tetrahydrofuran-3-carboxamide]"
22,96%,"C[C@H](C1CC1)N1Cc2ccc(-c3nnc(C(F)F)o3)cc2C1=O [Example 115, 2-((1R)-1-cyclopropylethyl)-6-(5-(difluoromethyl)-1,3,4-oxadiazol-2-yl)isoindolin-1-one]"
